Measurements as given in BindingDB's records for doi:10.7270/Q2Z31X1B (Nmmlsc, 2007).

Target: T1, fMet-Leu-Phe receptor (Homo sapiens, UniProt P21462)
T1 sequence (P21462 whole entry): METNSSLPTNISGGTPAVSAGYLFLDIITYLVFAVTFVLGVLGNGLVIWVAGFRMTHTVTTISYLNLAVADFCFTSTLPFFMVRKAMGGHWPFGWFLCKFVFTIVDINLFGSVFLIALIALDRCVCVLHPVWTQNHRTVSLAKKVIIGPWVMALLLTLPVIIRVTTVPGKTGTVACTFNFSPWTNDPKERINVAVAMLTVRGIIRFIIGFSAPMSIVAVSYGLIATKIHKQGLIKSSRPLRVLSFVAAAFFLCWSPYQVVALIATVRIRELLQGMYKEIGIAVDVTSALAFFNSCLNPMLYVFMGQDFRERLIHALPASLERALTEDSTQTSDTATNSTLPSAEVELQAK
Assay: human FPR1 ligand displacement potency – cell-based, flow cytometry, Ki from IC50, dose response (AID 724)

| Structure (SMILES) | Ki |
| --- | --- |
| O=C1C(=O)N(CCCn2ccnc2)C(c2cccnc2)C1C(=O)c1cc2ccccc2o1 (centres undefined) [3-(1-benzofuran-2-carbonyl)-4-hydroxy-1-(3-imidazol-1-ylpropyl)-2-pyridin-3-yl-2H-pyrrol-5-one] | > 44.3 µM |
| O=C1C(=O)N(c2ccc(F)cc2)C(c2ccc(Br)cc2)C1C(=O)c1ccccc1 (centres undefined) [(4Z)-5-(4-bromophenyl)-1-(4-fluorophenyl)-4-[hydroxy(phenyl)methylene]pyrrolidine-2,3-quinone] | > 44.3 µM |
| COc1cc(C2C(C(C)=O)C(=O)C(=O)N2c2ccc(Br)cc2)ccc1O (centres undefined) [1-(4-bromophenyl)-3-ethanoyl-2-(3-methoxy-4-oxidanyl-phenyl)-4-oxidanyl-2H-pyrrol-5-one] | > 44.3 µM |
| Cc1ccc(C(=O)C2C(=O)C(=O)N(c3nnc(C)s3)C2c2ccc(C(C)C)cc2)cc1 (centres undefined) [(4E)-4-[(4-methylphenyl)-oxidanyl-methylidene]-1-(5-methyl-1,3,4-thiadiazol-2-yl)-5-(4-propan-2-ylphenyl)pyrrolidine-2,3-dione] | > 44.3 µM |
| COc1ccc(C(=O)C2C(=O)C(=O)N(CCc3c[nH]c4ccccc34)C2c2ccc(C(C)C)cc2)cc1 (centres undefined) | > 44.3 µM |
| Cc1ccc(C(=O)C2C(=O)C(=O)N(Cc3cccnc3)C2c2ccc(Br)cc2)cc1 (centres undefined) [(4E)-5-(4-bromophenyl)-4-[(4-methylphenyl)-oxidanyl-methylidene]-1-(pyridin-3-ylmethyl)pyrrolidine-2,3-dione] | > 44.3 µM |
| CC(C)c1ccc(C2C(C(=O)c3ccccc3)C(=O)C(=O)N2Cc2cccnc2)cc1 (centres undefined) [(4E)-4-[hydroxy(phenyl)methylene]-5-p-cumenyl-1-(3-pyridylmethyl)pyrrolidine-2,3-quinone] | 33.2 µM |
| COc1cc(C2C(C(=O)c3cc4ccccc4o3)C(=O)C(=O)N2CCN(C)C)ccc1O (centres undefined) [3-(1-benzofuran-2-carbonyl)-1-[2-(dimethylamino)ethyl]-4-hydroxy-2-(4-hydroxy-3-methoxyphenyl)-2H-pyrrol-5-one] | > 44.3 µM |
| COc1ccc(C2C(C(=O)c3ccc(C)cc3)C(=O)C(=O)N2Cc2cccnc2)c(OC)c1 (centres undefined) [(4E)-5-(2,4-dimethoxyphenyl)-4-[(4-methylphenyl)-oxidanyl-methylidene]-1-(pyridin-3-ylmethyl)pyrrolidine-2,3-dione] | 39.1 µM |
| COc1ccc(C2C(C(=O)c3cc4ccccc4o3)C(=O)C(=O)N2CCN(C)C)cc1OC (centres undefined) [3-(1-benzofuran-2-carbonyl)-2-(3,4-dimethoxyphenyl)-1-[2-(dimethylamino)ethyl]-4-hydroxy-2H-pyrrol-5-one] | > 44.3 µM |
| O=C(O)CCCN1C(=O)C(=O)C(C(=O)c2ccccc2)C1/C=C/c1ccccc1 (centres undefined) [4-[(4E)-2,3-bis(oxidanylidene)-4-[oxidanyl(phenyl)methylidene]-5-[(E)-2-phenylethenyl]pyrrolidin-1-yl]butanoic acid] | > 44.3 µM |
| O=C1C(=O)N(CCCn2ccnc2)C(c2cccnc2)C1C(=O)c1ccco1 (centres undefined) [3-(furan-2-carbonyl)-4-hydroxy-1-(3-imidazol-1-ylpropyl)-2-pyridin-3-yl-2H-pyrrol-5-one] | > 44.3 µM |
| COc1ccc(OC)c(C2C(C(=O)c3ccc(C)cc3)C(=O)C(=O)N2CCC(=O)O)c1 (centres undefined) [3-[(3E)-2-(2,5-dimethoxyphenyl)-3-[(4-methylphenyl)-oxidanyl-methylidene]-4,5-bis(oxidanylidene)pyrrolidin-1-yl]propanoic acid] | > 44.3 µM |
| O=C1C(=O)N(CCCN2CCOCC2)C(c2cccnc2)C1C(=O)c1cc2ccccc2o1 (centres undefined) [3-(1-benzofuran-2-carbonyl)-4-hydroxy-1-(3-morpholin-4-ylpropyl)-2-pyridin-3-yl-2H-pyrrol-5-one] | > 44.3 µM |
| O=C1NC(c2ccc(Br)cc2)C(C(=O)c2ccc(Cl)cc2)C1=O (centres undefined) [(4E)-5-(4-bromophenyl)-4-[(4-chlorophenyl)-hydroxy-methylene]pyrrolidine-2,3-quinone] | > 44.3 µM |
| COc1ccc(C(=O)C2C(=O)C(=O)NC2c2ccc(OC)cc2OC)cc1 (centres undefined) [(4Z)-5-(2,4-dimethoxyphenyl)-4-[(4-methoxyphenyl)-oxidanyl-methylidene]pyrrolidine-2,3-dione] | > 44.3 µM |
| CCCCCCOc1cccc(N2C(=O)C(=O)C(C(=O)c3ccccc3)C2c2cccc(F)c2)c1 (centres undefined) [(4Z)-5-(3-fluorophenyl)-1-(3-hexoxyphenyl)-4-[hydroxy(phenyl)methylene]pyrrolidine-2,3-quinone] | > 44.3 µM |
| O=C1C(=O)N(CN2CCOCC2)C(c2ccc(Br)cc2)C1C(=O)c1ccccc1 (centres undefined) [(4E)-5-(4-bromophenyl)-1-(morpholin-4-ylmethyl)-4-[oxidanyl(phenyl)methylidene]pyrrolidine-2,3-dione] | > 44.3 µM |
| N#Cc1c(N=C(CC(=O)c2ccccc2)C(=O)O)sc2c1CCC2 [(Z)-2-[(3-cyano-5,6-dihydro-4H-cyclopenta[b]thiophen-2-yl)amino]-4-keto-4-phenyl-but-2-enoic acid] | > 44.3 µM |
| Cc1ccc(N2C(=O)C(=O)C(C(=O)c3ccccc3)C2c2cccc(F)c2)cc1Br (centres undefined) [(4Z)-1-(3-bromanyl-4-methyl-phenyl)-5-(3-fluorophenyl)-4-[oxidanyl(phenyl)methylidene]pyrrolidine-2,3-dione] | > 44.3 µM |
| COc1ccc(C2C(C(=O)c3ccco3)C(=O)C(=O)N2CCCN2CCOCC2)cc1OC (centres undefined) [2-(3,4-dimethoxyphenyl)-3-(furan-2-carbonyl)-4-hydroxy-1-(3-morpholin-4-ylpropyl)-2H-pyrrol-5-one] | > 44.3 µM |

Further compounds by falling Ki, results first:

| Ki | Structure (SMILES) |
| --- | --- |
| 33 µM | COCCCN1C(=O)C(=O)C(C(=O)c2ccccc2)C1c1ccc(O)c(OC)c1 (centres undefined) [(4E)-5-(3-methoxy-4-oxidanyl-phenyl)-1-(3-methoxypropyl)-4-[oxidanyl(phenyl)methylidene]pyrrolidine-2,3-dione] |
| 31.1 µM | COc1ccc(C2C(C(=O)c3ccccc3)C(=O)C(=O)N2c2cccc(Cl)c2)c(OC)c1 (centres undefined) [(4E)-1-(3-chlorophenyl)-5-(2,4-dimethoxyphenyl)-4-[hydroxy(phenyl)methylene]pyrrolidine-2,3-quinone] |
| 20.3 µM | COCCCN1C(=O)C(=O)C(C(=O)c2ccccc2)C1c1ccc(C(C)C)cc1 (centres undefined) [(4E)-1-(3-methoxypropyl)-4-[oxidanyl(phenyl)methylidene]-5-(4-propan-2-ylphenyl)pyrrolidine-2,3-dione] |
| 16.8 µM | COc1ccc(OC)c(C2C(C(=O)c3ccccc3)C(=O)C(=O)N2c2ccc(C)c(Cl)c2)c1 (centres undefined) [(4E)-1-(3-chloranyl-4-methyl-phenyl)-5-(2,5-dimethoxyphenyl)-4-[oxidanyl(phenyl)methylidene]pyrrolidine-2,3-dione] |
| 11.2 µM | CC(=O)C1C(=O)C(=O)N(CCc2c(C)[nH]c3ccccc23)C1c1cccc(F)c1 (centres undefined) |
| 6.9 µM | O=C1C(=O)N(CCc2ccccc2)C(c2ccc(Cl)cc2)C1C(=O)c1cccs1 (centres undefined) [2-(4-chlorophenyl)-4-hydroxy-1-(2-phenylethyl)-3-(thiophene-2-carbonyl)-2H-pyrrol-5-one] |
| 6.4 µM | COc1ccc(C2C(C(=O)c3ccco3)C(=O)C(=O)N2CCN2CCOCC2)c(OC)c1 (centres undefined) [5-(2,4-dimethoxyphenyl)-4-(furan-2-carbonyl)-3-hydroxy-1-(2-morpholinoethyl)-1H-pyrrol-2(5H)-one] |
| 6 µM | COc1ccc(OC)c(C2C(C(=O)c3ccccc3)C(=O)C(=O)N2c2cccnc2)c1 (centres undefined) [(4E)-5-(2,5-dimethoxyphenyl)-4-[hydroxy(phenyl)methylene]-1-(3-pyridyl)pyrrolidine-2,3-quinone] |
| 4.7 µM | COc1ccc(C2C(C(=O)c3cccs3)C(=O)C(=O)N2CCCn2ccnc2)cc1 (centres undefined) [1-(3-imidazol-1-ylpropyl)-2-(4-methoxyphenyl)-4-oxidanyl-3-thiophen-2-ylcarbonyl-2H-pyrrol-5-one] |
| 4.7 µM | CCCCCCN1C(=O)C(=O)C(C(=O)c2ccccc2)C1c1ccc(O)c(OC)c1 (centres undefined) [(4Z)-1-hexyl-5-(3-methoxy-4-oxidanyl-phenyl)-4-[oxidanyl(phenyl)methylidene]pyrrolidine-2,3-dione] |
| 3.4 µM | COc1ccc(C2C(C(=O)c3ccccc3)C(=O)C(=O)N2CCCn2ccnc2)c(OC)c1 (centres undefined) [(4E)-5-(2,4-dimethoxyphenyl)-1-(3-imidazol-1-ylpropyl)-4-[oxidanyl(phenyl)methylidene]pyrrolidine-2,3-dione] |
| 2.9 µM | COc1ccc(C2C(C(=O)c3cccs3)C(=O)C(=O)N2CCN2CCOCC2)c(OC)c1 (centres undefined) [2-(2,4-dimethoxyphenyl)-1-(2-morpholin-4-ylethyl)-4-oxidanyl-3-thiophen-2-ylcarbonyl-2H-pyrrol-5-one] |
| 1.8 µM | COCCN1C(=O)C(=O)C(C(=O)c2ccccc2)C1c1cc(OC)ccc1OC (centres undefined) [(4E)-5-(2,5-dimethoxyphenyl)-1-(2-methoxyethyl)-4-[oxidanyl(phenyl)methylidene]pyrrolidine-2,3-dione] |
